PMC13172357 (Nature Communications, 2026)

Experiments:
Format in all cases: cell-based
USP7 = biological target: T1, USP7 (Homo sapiens, UniProt Q93009); test: USP7 degradation, Western blot densitometry, Ma-Mel-47 cells; details: for USP7 degradation (in words): 24 h; for USP7 levels in time course (in words): over 24 h; for DC50: read-out: DC50 (half-maximal degradation concentration)
T1 construct: allowed the analysis of endogenous USP7 degradation in both cell lines; endogenous in cells; host or cells: Panc89 (PDAC) and Ma-Mel-47 (melanoma) cells
T1 sequence (Q93009 whole entry): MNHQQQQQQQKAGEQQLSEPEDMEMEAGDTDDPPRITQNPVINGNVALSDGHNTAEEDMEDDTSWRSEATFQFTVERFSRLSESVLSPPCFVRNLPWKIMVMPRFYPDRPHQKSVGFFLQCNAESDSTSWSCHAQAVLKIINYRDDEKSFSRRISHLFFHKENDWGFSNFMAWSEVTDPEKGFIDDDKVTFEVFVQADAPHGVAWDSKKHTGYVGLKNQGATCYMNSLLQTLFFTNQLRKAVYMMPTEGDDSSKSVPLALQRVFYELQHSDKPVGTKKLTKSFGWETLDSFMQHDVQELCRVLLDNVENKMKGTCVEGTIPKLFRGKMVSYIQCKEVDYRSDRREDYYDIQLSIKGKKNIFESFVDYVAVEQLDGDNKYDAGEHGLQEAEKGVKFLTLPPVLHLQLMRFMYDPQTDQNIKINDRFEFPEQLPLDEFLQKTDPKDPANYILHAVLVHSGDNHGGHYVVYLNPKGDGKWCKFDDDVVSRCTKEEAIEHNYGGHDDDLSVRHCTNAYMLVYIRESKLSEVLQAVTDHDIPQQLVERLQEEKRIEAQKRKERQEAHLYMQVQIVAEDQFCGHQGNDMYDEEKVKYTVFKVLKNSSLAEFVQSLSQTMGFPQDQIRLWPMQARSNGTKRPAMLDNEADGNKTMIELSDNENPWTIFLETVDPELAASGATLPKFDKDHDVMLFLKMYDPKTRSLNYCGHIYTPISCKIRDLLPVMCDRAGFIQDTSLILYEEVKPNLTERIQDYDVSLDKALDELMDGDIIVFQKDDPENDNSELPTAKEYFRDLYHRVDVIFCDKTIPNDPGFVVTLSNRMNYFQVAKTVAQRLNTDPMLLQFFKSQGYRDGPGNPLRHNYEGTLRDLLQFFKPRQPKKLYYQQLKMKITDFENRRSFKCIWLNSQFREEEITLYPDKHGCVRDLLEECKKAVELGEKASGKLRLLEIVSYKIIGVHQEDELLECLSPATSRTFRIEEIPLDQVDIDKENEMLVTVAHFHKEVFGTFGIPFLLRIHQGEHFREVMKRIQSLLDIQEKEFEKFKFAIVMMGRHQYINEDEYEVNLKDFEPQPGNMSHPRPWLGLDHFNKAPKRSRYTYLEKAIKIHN
Experimental: The melanoma cell line Ma-Mel-47 (established previously[57] from metastatic lesions from patient tumor tissues after written informed consent) and the PDAC cell line Panc89 (RRID: CVCL_4056, also referenced as T3M-4[58]) were cultured in a humidified incubator with 5% CO2 at 37 °C in RPMI1640 (Ma-Mel-47) / DMEM (Panc89) medium containing 10% (v/v) fetal calf serum (FCS) and penicillin/streptomycin (all Gibco, Thermo Fisher Scientific). Studies on human material were approved by the institutional review board. […] Testing for mycoplasma was performed by PCR monthly. To confirm cell identity, STR analysis was performed by the Microsynth Seqlab GmbH.
To prepare samples for Western blot analysis, cells were seeded in 6-well dishes the day before treatment to adhere at 70–80% confluency.
Cell pellets of all PDAC samples were lysed via adding a buffer containing 150 mM NaCl, 50 mM Tris/HCl (pH 7.4), 1% Triton X-100, 10 mM EDTA, 1 mM PMSF, 10 mM orthovanadate, and 1% aprotinin, incubating on ice for 1 h with vortexing every 15 minutes. Lysates were cleared of cell debris by centrifugation at 10,000 ×g at 4 °C for 10 min. […] Lysates were then clarified of cell debris by centrifugation at 13,000 ×g at 4 °C for 15 min. Thereafter, the total protein concentrations were either determined immediately or the protein extracts were stored at −20 or −80 °C. Pellets for samples shown in Fig. 6 and Supplementary Fig. 6 were lysed in 120 µL lysis buffer (50 mM Tris pH 8.0, 150 mM NaCl, 1% (v/v) IGEPAL, 0.5% (w/v) Na-deoxycholate, 0.1% (w/v) SDS) supplemented with 1x EDTA-free inhibitor protease cocktail (cOmplete, Roche) for 15 min at 4 °C. 0.2 µL Turbonuclease (Sigma Aldrich) and 5 mM MgCl2 were then added and lysates were incubated for 15 min at 4 °C. Cell debris was separated by centrifugation at 20,817 ×g for 15 min at 4 °C.
Protein concentrations of cell lysates were measured using the Pierce BCA Protein Assay (Thermo Fisher Scientific) or the Quick Start Bradford Protein Assay (Bio-Rad), following the manufacturers’ protocols. Measurements were recorded on Tecan Spark or Tecan Infinite M200 plate readers. Lysates were kept on ice throughout the entire process.
To separate proteins via SDS-PAGE, 10-20 µg of protein in lysis buffer was diluted with SDS-PAGE loading buffer (for most blots containing DTT or 2-mercaptoethanol) and denatured at 95 °C for 5 min. Protein separation was conducted at 95–110 V using the Mini-PROTEAN electrophoresis system (Bio-Rad). Proteins were then transferred to PVDF or nitrocellulose membranes using the Trans-Blot Turbo system (Bio-Rad) with the Trans-Blot Turbo RTA Kit for PVDF membranes. Prior to transfer, membranes were activated by soaking in 100% ethanol (for PVDF) or distilled water (for nitrocellulose) and proteins were transferred using the Mixed MW or the standard (1.0 A, 25 V, 30 min) protocol.
After transfer, membranes were blocked in 5% (w/v) milk/TBS-T for 1 h and then washed three times for 10 min with TBS-T. They were incubated overnight at 4 °C with the primary antibody in 5% (w/v) milk/TBS-T or 1% (w/v) BSA/TBS-T. Membranes were then washed three times for 10 min with TBS-T and incubated with horseradish peroxidase (HRP)-conjugated secondary antibodies in a solution of 5% (w/v) BSA/TBS-T or 1% (w/v) milk/TBS-T for 1 h at room temperature. PBS-T was used for blots shown in Fig. 6 and Supplementary Fig. 6.
Membranes were incubated with Clarity Western ECL substrate (Bio-Rad) for PDAC samples or Pierce ECL Western Blotting-Substrate (Thermo Fisher Scientific) for melanoma. Chemiluminescent signals were detected with a ChemiDoc Imaging System (Bio-Rad) for PDAC samples or with a ECL Chemostar Imager (Intas Science Imaging) for melanoma samples.
Densitometric quantification of band intensities for Fig. 2c, d was performed using the ImageJ software.

HiBiT-USP7 = HiBiT-USP7 (Homo sapiens, UniProt Q93009); test: HiBiT USP7 degradation assay, MV4-11 cells; details: for DC50: MV4-11 HiBiT-USP7, 24 h
HiBiT-USP7, sequence (Q93009 whole entry, the tested form may be a part): as the sequence (Q93009 whole entry) above
Experimental: HiBiT-USP7 construct was cloned by extraction of USP7 fragment from plasmid pQHA-USP7 WT puroR (Addgene #46753) using appropriate restriction sites. The USP7 fragment was then ligated into the pRRL-PGK-HiBiT entry vector to generate the plasmid.
Lentiviral infection was used to generate stable a MV4-11 HiBiT cell line. Lentivirus was produced using plasmids psPAX2, pMD2.G, and HiBiT-USP7 plasmid in HEK293 cells. MV4-11 cells were infected with filtered virus supernatant and selected after 48 h of infection for the generation of the stable MV4-11^HiBiT-USP7 cell line.
The assay was performed as described previously. Briefly, MV4-11^HiBiT-USP7 cells were seeded and treated with compounds for the indicated time. Nano-Glo HiBiT Lytic Detection System (Promega) was used for the assay and luminescence was measured on a Tecan Spark microplate reader (Tecan). DC50 values were calculated using the sigmoidal dose-response (four parameters) equation in GraphPad Prism and are given as the concentration where 50% of the total signal was remaining. Dmax values are given as the maximum degradation observed at any concentration.

[1] = biological target: T2, NanoLuc-USP7 and HaloTag-VHL (Homo sapiens, UniProt P40337+Q93009); test: Cellular ternary complex formation assay (NanoBRET), HEK293T cells; details: for Ternary complex induction (in words): NanoBRET
T2 construct: expressed in transfected cells; host or cells: HEK293T, transient transfection (FuGENE HD)
T2 sequence (Q93009 whole entry): as above
T2 sequence (P40337 whole entry): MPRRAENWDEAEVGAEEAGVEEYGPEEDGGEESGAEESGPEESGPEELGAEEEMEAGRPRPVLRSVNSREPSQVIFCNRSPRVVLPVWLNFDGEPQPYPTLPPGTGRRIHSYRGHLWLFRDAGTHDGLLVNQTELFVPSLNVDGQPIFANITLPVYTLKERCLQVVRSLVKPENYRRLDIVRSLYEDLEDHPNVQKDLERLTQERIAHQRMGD
T2 sequence (Q15370 whole entry partner): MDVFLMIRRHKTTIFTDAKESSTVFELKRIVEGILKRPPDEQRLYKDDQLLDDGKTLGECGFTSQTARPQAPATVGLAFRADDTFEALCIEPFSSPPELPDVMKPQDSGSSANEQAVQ
T2 sequence (Q15369 whole entry partner): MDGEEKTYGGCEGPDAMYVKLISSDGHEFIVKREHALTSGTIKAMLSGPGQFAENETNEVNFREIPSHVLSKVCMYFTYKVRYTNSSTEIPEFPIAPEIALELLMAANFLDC
Experimental: The assay was performed as described step-by-step elsewhere. USP7 (NanoLuc-USP7) and VHL (HaloTag-VHL) were cloned in frame with N-terminal NanoLuc or HaloTag, respectively. For transfections, HEK293T cells were diluted in Opti-MEM medium without phenol red (Life Technologies) to 4×10^5 cells/mL and 9 µL were pipetted into each well of a white 384-well plate (Greiner 781207). 1 mL transfection mix was prepared containing 30 µL FuGENE HD (Promega, E2312) and 8 µL of each plasmid, incubated 20 min at RT and 1 µL were pipetted into each well leading to the total assay volume of 10 µL. […] 2 h prior to BRET measurements, the compounds were titrated to the cells using an Echo acoustic dispenser and the cells were incubated further at 37 °C and 5% CO2 to allow complex formation. NanoBRET Nano-Glo substrate and Extracellular NanoLuc Inhibitor (Promega, N2540) were then added as per the manufacturer’s protocol, and filtered luminescence was recorded on a PHERAstar FSX plate reader (BMG Labtech) equipped with a luminescence filter pair (donor: 450 nm BP filter; acceptor: 610 nm LP filter). Data were analyzed using GraphPad Prism 10 software.

[2] = Ma-Mel-47, 24 h, Western blot densitometry
[3] = MV4-11, MV4-11 HiBiT-USP7, 24 h

Row | Compound | USP7 degradation (in words) (USP7; Ma-Mel-47, 1 µM) | USP7 levels in time course (in words) (USP7; Ma-Mel-47, 1 µM) | DC50 (USP7; [2]) | Dmax (HiBiT-USP7; MV4-11, MV4-11 HiBiT-USP7, 6 h) | Dmax (HiBiT-USP7; [3]) | DC50 (HiBiT-USP7) | EC50 ([1]; compound 2 h prior BRET measurement, read-out: EC50 (half-maximal ternary complex formation concentration)) | Time after which USP7 degradation was observed (USP7; Ma-Mel-47, 1 µM) | USP7 degradation (in words) (USP7; Ma-Mel-47, 5 µM, Western blot) | Dmax (USP7; [2]) | Ternary complex induction (in words) [1] | HiBiT-USP7 levels (in words) (HiBiT-USP7; MV4-11 HiBiT-USP7, 6 h and 24 h)
1 | Cc1ncsc1-c1ccc([C@H](C)NC(=O)[C@@H]2C[C@@H](O)CN2C(=O)[C@@H](NC(=O)[C@H]2CC[C@H](C(=O)N3CCN(c4ccc(-n5ncc6c(=O)n(CC7(O)CCN(C(=O)C[C@@H](C)c8ccccc8)CC7)cnc65)cc4)CC3)CC2)C(C)(C)C)cc1 [NK250] | not able to fully degrade USP7 | weak effects | 0.154 ± 0.038 µM | 87% | 90 to 92% | 0.004 µM | 0.058 µM |  |  |  |  | 
2 | Cc1ncsc1-c1ccc([C@H](C)NC(=O)[C@@H]2C[C@@H](O)CN2C(=O)[C@@H](NC(=O)C23C4C5C2C2C3C4C52C(=O)N2CCC(C3CCN(c4ccc(-n5ncc6c(=O)n(CC7(O)CCN(C(=O)C[C@@H](C)c8ccccc8)CC7)cnc65)cc4)CC3)CC2)C(C)(C)C)cc1 (stereo partly drawn) [NK266] |  |  | 0.029 µM | 74% | 90 to 92% | 0.024 µM |  | 16 h | higher potency | 94% | did not increase the BRET signal to the same level | 
3 | Cc1ncsc1-c1ccc(CNC(=O)[C@@H]2C[C@H](O)CN2C(=O)[C@@H](NC(=O)[C@H]2CC[C@H](C(=O)N3CCN(c4ccc(-n5ncc6c(=O)n(CC7(O)CCN(C(=O)C[C@@H](C)c8ccccc8)CC7)cnc65)cc4)CC3)CC2)C(C)(C)C)cc1 [NK245] |  | did not reduce protein levels |  |  |  |  |  |  |  |  | neither the negative control NK245 nor the VHL ligand VH298 induced a ternary complex | partial reduction of USP7 levels
